Measured values reported in ChEMBL document CHEMBL3797201, “Synthesis of N-1', N-3'-disubstituted spirohydantoins and their anticonvulsant activities in pilocarpine model of temporal lobe epilepsy” (Bioorg Med Chem Lett, 2016).
Activity calls are given as the source filed them. The rule behind the calls is not given here.

Legend:
Rattus norvegicus [1] = assay: Toxicity in pilocarpine-induced status epilepticus Sprague-Dawley rat model assessed as sedation at 100 mg/kg, ip administered 2 hrs prior to pilocarpine challenge; type: organism-based; conditions: in vivo
Rattus norvegicus [2] = assay: Toxicity in pilocarpine-induced status epilepticus Sprague-Dawley rat model assessed as loss of righting reflex at 100 mg/kg, ip administered 2 hrs prior to pilocarpine challenge measured within 10 mins and upto 4 hrs; type: organism-based; conditions: in vivo
Rattus norvegicus [3] = assay: Anticonvulsant activity in pilocarpine-induced status epilepticus Sprague-Dawley rat model at 100 mg/kg, ip administered 2 hrs prior to pilocarpine challenge; type: functional, organism-based
Rattus norvegicus [4] = assay: Anticonvulsant activity in pilocarpine-induced status epilepticus Sprague-Dawley rat model assessed as delay in motor seizure onset time at 100 mg/kg, ip administered 2 hrs prior to pilocarpine challenge; type: functional, organism-based
Rattus norvegicus [5] = assay: Anticonvulsant activity in pilocarpine-induced status epilepticus Sprague-Dawley rat model assessed as recovered from seizure within 90 to 120 mins at 100 mg/kg, ip administered 2 hrs prior to pilocarpine challenge; type: functional, organism-based
Rattus norvegicus [6] = assay: Anticonvulsant activity in pilocarpine-induced status epilepticus Sprague-Dawley rat model assessed as motor seizure onset time at 100 mg/kg, ip administered 2 hrs prior to pilocarpine challenge (reference value: 6 mins); type: functional
Rattus norvegicus [7] = assay: Anticonvulsant activity in pilocarpine-induced status epilepticus Sprague-Dawley rat model assessed as survival rate at 100 mg/kg, ip administered 2 hrs prior to pilocarpine challenge (reference value: 53%); type: functional
Rattus norvegicus [8] = assay: Anticonvulsant activity in pilocarpine-induced status epilepticus Sprague-Dawley rat model assessed as decrease in progression of motor seizure at 100 mg/kg, ip administered 2 hrs prior to pilocarpine challenge; type: functional, organism-based
Rattus norvegicus [9] = assay: Anticonvulsant activity in pilocarpine-induced status epilepticus Sprague-Dawley rat model assessed as recovered from pre-stage of motor seizue within 30 mins at 100 mg/kg, ip administered 2 hrs prior to pilocarpine challenge; type: functional, organism-based

Q: What does the source list for `O=C1OC2(C(=O)N(c3ccccc3)C(=O)N2c2ccccc2)c2ccccc21` (racemic)?
A: Activity (Rattus norvegicus [1]): Toxic; Activity (Rattus norvegicus [2]): Toxic

Q: What does the source list for `CCCN1C(=O)N(c2ccc([N+](=O)[O-])cc2)C(=O)C12OC(=O)c1ccccc12` (racemic)?
A: Activity (Rattus norvegicus [3]): Active; Activity (Rattus norvegicus [4]): Active; Activity (Rattus norvegicus [5]): Active

Q: Which Activity (Rattus norvegicus [1]) does the source give for `CCCN1C(=O)N(c2ccccc2)C(=O)C12OC(=O)c1ccccc12` (racemic) here?
A: Its Activity is “Toxic”.

Q: And the Activity (Rattus norvegicus [2])?
A: The Activity was “Toxic”.

Q: With `O=C1OC2(C(=O)N(c3ccc(Cl)cc3)C(=O)N2C2CC2)c2ccccc21` (racemic) as the compound, how does the Activity (Rattus norvegicus [3]) read?
A: Its Activity is “Active”.

Q: `CCc1cccc(CC)c1N1C(=O)N(CC)C2(OC(=O)c3ccccc32)C1=O` (racemic) was tested. Which Activity (Rattus norvegicus [3]) did it give?
A: Its Activity is “Active”.

Q: For `CCCN1C(=O)N(c2ccc(CC)cc2)C(=O)C12OC(=O)c1ccccc12` (racemic), which Activity (Rattus norvegicus [4]) is on record?
A: The Activity was “Active”.

Q: `O=C1OC2(C(=O)N(c3ccc([N+](=O)[O-])cc3)C(=O)N2c2ccccc2)c2ccccc21` (racemic) was tested. Which Time (Rattus norvegicus [6]) did it give?
A: Its Time is 104 min.

Q: `CCCN1C(=O)N(c2ccccc2CC)C(=O)C12OC(=O)c1ccccc12` (racemic) was tested. Which Activity (Rattus norvegicus [3]) did it give?
A: Its Activity is “Active”.

Q: Which Activity (Rattus norvegicus [3]) does the source give for `CCN1C(=O)N(c2ccc([N+](=O)[O-])cc2)C(=O)C12OC(=O)c1ccccc12` (racemic) here?
A: Its Activity is “Active”.

Q: What about the Activity (Rattus norvegicus [5]) of the same compound?
A: Its Activity is “Active”.

Q: `O=C1OC2(C(=O)N(c3ccccc3)C(=O)N2C2CC2)c2ccccc21` (racemic) was tested. Which Activity (Rattus norvegicus [1]) did it give?
A: Its Activity is “Toxic”.

Q: What about the Activity (Rattus norvegicus [2]) of the same compound?
A: The Activity was “Toxic”.

Q: `CCCN1C(=O)N(c2ccc(Cl)cc2)C(=O)C12OC(=O)c1ccccc12` (racemic) was tested. Which Activity (Rattus norvegicus [3]) did it give?
A: The Activity was “Active”.

Q: Which results are given for `O=C1OC2(C(=O)N(c3ccc([N+](=O)[O-])cc3)C(=O)N2C2CC2)c2ccccc21` (racemic)?
A: Activity (Rattus norvegicus [3]): Active; Activity (Rattus norvegicus [5]): Active

Q: With `CCc1ccc(N2C(=O)N(C3CC3)C3(OC(=O)c4ccccc43)C2=O)cc1` (racemic) as the compound, how does the Activity (Rattus norvegicus [4]) read?
A: The Activity was “Active”.

Q: Which Activity (Rattus norvegicus [4]) does the source give for `O=C1OC2(C(=O)N(c3ccc(Cl)cc3)C(=O)N2c2ccccc2)c2ccccc21` (racemic) here?
A: The Activity was “Active”.

Q: Which Time (Rattus norvegicus [6]) does the source give for `O=C1NC(=O)C(c2ccccc2)(c2ccccc2)N1` [PHENYTOIN] here?
A: Its Time is 12 min.

Q: And the survival at 100 mg/kg (Rattus norvegicus [7])?
A: Its survival at 100 mg/kg is 67%.

Q: Which Activity (Rattus norvegicus [3]) does the source give for `CCN1C(=O)N(c2ccc(OC)cc2OC)C(=O)C12OC(=O)c1ccccc12` (racemic) here?
A: Its Activity is “Active”.

Q: What about the Activity (Rattus norvegicus [4]) of the same compound?
A: Its Activity is “Active”.

Q: And the Activity (Rattus norvegicus [5])?
A: Its Activity is “Active”.

Q: And the Activity (Rattus norvegicus [8])?
A: Its Activity is “Active”.

Q: And the Activity (Rattus norvegicus [9])?
A: The Activity was “Active”.
